pIC50: −log10 of the molar value. Positions of bridges follow the written chain, without caps; N, C: chain ends. Non-standard residues stand in square brackets, D forms with d. Residues, ends and D or L forms follow the SMILES beside them. *: point of attachment. Dap(Nα-HOOC(CH2)16CO)OH = O=C(O)CCCCCCCCCCCCCCCCC(=O)N[C@@H](CN*)C(=O)O; X6 = O=C(O)CCCCCCCCCCCCCCCCC(=O)N[C@@H](CCC(=O)NCCCOCCOCCOCCCN*)C(=O)O; Trp(1-CH2COOH) = N[C@@H](Cc1cn(CC(=O)O)c2ccccc12)C(=O)O; X14 = O=C(O)CCCCCCCCCCNC(=O)CCC(=O)NCCCOCCOCCOCCCN*; X9 = O=C(O)CCCCCCCCCCCCCCCCC(=O)N[C@@H](CCN*)C(=O)O; NH(CH2)14COOH = O=C(O)CCCCCCCCCCCCCCN*; Phe(4-F) = N[C@@H](Cc1ccc(F)cc1)C(=O)O; d(cisHyp) = O=C(O)[C@H]1C[C@@H](O)CN1; NH(CH2)12COOH = O=C(O)CCCCCCCCCCCCN*; PEG6 = NCCOCCOCCOCCOCCOCCOCCC(=O)O; Hyp = O=C(O)[C@@H]1C[C@@H](O)CN1; Myristoyl = CCCCCCCCCCCCCC(=O)*; dHyp = O=C(O)[C@H]1C[C@H](O)CN1; NMeNle = CCCC[C@H](NC)C(=O)O; Pip = O=C(O)[C@@H]1CCCCN1; NMeA = CN[C@@H](C)C(=O)O; Dab = NCC[C@H](N)C(=O)O; Dap = NC[C@H](N)C(=O)O
Target: T1, PD-L1 (Homo sapiens, UniProt Q9NZQ7)
T1 construct: hPDL1(19-239)-TVMV-His; made in house; host or cells: HEK293T
Test: PD-1/PD-L1 Homogenous Time-Resolved Fluorescence (HTRF) binding assay (PD-1-Ig/PD-L1-His)
Settings: inhibition of PD-1-Ig binding to PD-L1-TVMV-His; value given as range class; read-out: HTRF IC50
In short: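 HTRF competition in dPBS with 0.1% BSA and 0.05% Tween-20: 20 nM PD-1-Ig added after 15 min compound pre-incubation with 10 nM PD-L1-His, then another 15 min. Signal (665/620 nm) after 30 min with APC anti-His (20 nM) and Eu anti-Ig (1 nM).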

T1 sequence (Q9NZQ7 with tags, fused parts or gaps): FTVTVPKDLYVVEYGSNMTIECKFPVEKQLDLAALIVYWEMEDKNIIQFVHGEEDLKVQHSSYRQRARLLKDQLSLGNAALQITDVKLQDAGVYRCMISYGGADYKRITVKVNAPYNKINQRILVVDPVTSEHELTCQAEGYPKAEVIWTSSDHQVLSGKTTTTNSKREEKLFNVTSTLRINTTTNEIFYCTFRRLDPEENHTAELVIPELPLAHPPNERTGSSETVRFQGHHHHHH

First: CCCC[C@H]1C(=O)N(C)[C@@H](CCCC)C(=O)N[C@@H](CC(C)C)C(=O)N[C@H](C(=O)NCC(=O)N[C@@H](CC(=O)O)C(=O)NCCOCCOCCOCCOCCOCCOCCC(=O)NC[C@H](NC(=O)CCCCCCCCCCCCCCCCC(=O)O)C(=O)O)CSCC(=O)N[C@@H](Cc2ccc(O)cc2)C(=O)N(C)[C@@H](C)C(=O)N[C@@H](CC(N)=O)C(=O)N2CCC[C@H]2C(=O)N[C@@H](CN)C(=O)N[C@@H](CC(C)C)C(=O)N2C[C@H](O)C[C@H]2C(=O)N[C@@H](Cc2c[nH]c3ccccc23)C(=O)N[C@@H](CCN)C(=O)N[C@@H](Cc2cn(CC(=O)O)c3ccccc23)C(=O)N1C [Example 11181] ({CH2CO}-Y[NMeA]NP[Dap]L[Hyp]W[Dab][Trp(1-CH2COOH)][NMeNle][NMeNle]LCGD[PEG6]-{Dap(Nα-HOOC(CH2)16CO)OH}; thioether N-14)
Second: CCCC[C@H]1C(=O)N(C)[C@@H](CCCC)C(=O)N[C@@H](CC(C)C)C(=O)N[C@H](C(=O)N[C@@H](CC(=O)O)C(=O)N[C@@H](CCC(=O)NCCCOCCOCCOCCCNC(=O)CC[C@H](NC(=O)CCCCCCCCCCCCCCCCC(=O)O)C(=O)O)C(=O)O)CSCC(=O)N[C@@H](Cc2ccc(O)cc2)C(=O)N(C)[C@@H](C)C(=O)N[C@@H](CC(N)=O)C(=O)N2CCC[C@@H]2C(=O)N[C@@H](CN)C(=O)N[C@@H](CC(C)C)C(=O)N2C[C@@H](O)C[C@@H]2C(=O)N[C@@H](Cc2c[nH]c3ccccc23)C(=O)N[C@@H](CCN)C(=O)N[C@@H](Cc2cn(CC(=O)O)c3ccccc23)C(=O)N1C [Example 11228] ({CH2CO}-Y[NMeA]N[dP][Dap]L[dHyp]W[Dab][Trp(1-CH2COOH)][NMeNle][NMeNle]LCDE(X6)-OH; thioether N-14)
The pIC50 of the first is lower: 5.80 to 7.00 for the first, 7.00 to 8.00 for the second.

First: CCCC[C@H]1C(=O)N(C)[C@@H](CCCC)C(=O)N[C@@H](CC(C)C)C(=O)N[C@H](C(=O)NCCCCCCCCCCCCCCC(=O)O)CSCC(=O)N[C@@H](Cc2ccc(O)cc2)C(=O)N(C)[C@@H](C)C(=O)N[C@@H](CC(N)=O)C(=O)N2CCC[C@H]2C(=O)N[C@@H](CN)C(=O)N[C@@H](CC(C)C)C(=O)N2C[C@H](O)C[C@H]2C(=O)N[C@@H](Cc2c[nH]c3ccccc23)C(=O)N[C@@H](CCN)C(=O)N[C@@H](Cc2cn(CC(=O)O)c3ccccc23)C(=O)N1C [Example 11196] ({CH2CO}-Y[NMeA]NP[Dap]L[Hyp]W[Dab][Trp(1-CH2COOH)][NMeNle][NMeNle]LC-{NH(CH2)14COOH}; thioether N-14)
Second: CCCC[C@H]1C(=O)N(C)[C@@H](CCCC)C(=O)N[C@@H](CCC(=O)O)C(=O)N[C@H](C(=O)NCCCOCCOCCOCCCNC(=O)CCC(=O)NCCCCCCCCCCC(=O)O)CSCC(=O)N[C@@H](Cc2ccc(O)cc2)C(=O)N(C)[C@@H](C)C(=O)N[C@@H](CC(=O)O)C(=O)N2CCC[C@H]2C(=O)N[C@@H](CN)C(=O)N[C@@H](CC(C)C)C(=O)N2C[C@H](O)C[C@@H]2C(=O)N[C@@H](Cc2c[nH]c3ccccc23)C(=O)N[C@@H](CCN)C(=O)N[C@@H](Cc2cn(CC(=O)O)c3ccccc23)C(=O)N1C [Example 11145] ({CH2CO}-Y[NMeA]DP[Dap]L[d(cisHyp)]W[Dab][Trp(1-CH2COOH)][NMeNle][NMeNle]EC-X14; thioether N-14)
The pIC50 of the first is lower: 7.00 to 8.00 for the first, 8.00 to 9.52 for the second.

`CCCC[C@H]1C(=O)N(C)[C@@H](CCCC)C(=O)N[C@@H](CC(C)C)C(=O)N[C@H](C(=O)NCC(=O)N[C@@H](CCC(=O)NCC[C@H](NC(=O)CCCCCCCCCCCCCCCCC(=O)O)C(=O)O)C(=O)O)CSCC(=O)N[C@@H](Cc2ccc(F)cc2)C(=O)N2CCCC[C@H]2C(=O)N[C@@H](CC(=O)O)C(=O)N2CCC[C@H]2C(=O)N[C@@H](CN)C(=O)N[C@@H](CC(C)C)C(=O)N2C[C@H](O)C[C@H]2C(=O)N[C@@H](Cc2c[nH]c3ccccc23)C(=O)N[C@@H](CCN)C(=O)N[C@@H](Cc2cn(CC(=O)O)c3ccccc23)C(=O)N1C` [Example 13148] ({CH2CO}-[Phe(4-F)][Pip]DP[Dap]L[Hyp]W[Dab][Trp(1-CH2COOH)][NMeNle][NMeNle]LCGE(X9)-OH; thioether N-14) and `CCCC[C@H]1C(=O)N(C)[C@@H](CCCC)C(=O)N[C@@H](CC(C)C)C(=O)N[C@H](C(=O)NCC(=O)N[C@@H](CC(=O)O)C(=O)N[C@@H](CC(=O)O)C(=O)NCCCCCCCCCCCCC(=O)O)CSCC(=O)N[C@@H](Cc2ccc(O)cc2)C(=O)N(C)[C@@H](C)C(=O)N[C@@H](CC(=O)O)C(=O)N2CCC[C@H]2C(=O)N[C@@H](Cc2cnc[nH]2)C(=O)N[C@@H](CCCCN)C(=O)N2C[C@H](O)C[C@H]2C(=O)N[C@@H](Cc2c[nH]c3ccccc23)C(=O)N[C@@H](CCCCN)C(=O)N[C@@H](Cc2cn(CC(=O)O)c3ccccc23)C(=O)N1C` [Example 11218] ({CH2CO}-Y[NMeA]DPHK[Hyp]WK[Trp(1-CH2COOH)][NMeNle][NMeNle]LCGDD-{NH(CH2)12COOH}; thioether N-14) fall in the same range of pIC50: 7.00 to 8.00 for the first, 7.00 to 8.00 for the second.

For `CCCCCCCCCCCCCC(=O)NCCCC[C@H](NC(=O)[C@H](CC(=O)O)NC(=O)CNC(=O)[C@@H]1CSCC(=O)N[C@@H](Cc2ccc(O)cc2)C(=O)N(C)[C@@H](C)C(=O)N[C@@H](CC(=O)O)C(=O)N2CCC[C@H]2C(=O)N[C@@H](Cc2cnc[nH]2)C(=O)N[C@@H](CC(C)C)C(=O)N2C[C@H](O)C[C@H]2C(=O)N[C@@H](Cc2c[nH]c3ccccc23)C(=O)N[C@@H](CO)C(=O)N[C@@H](Cc2c[nH]c3ccccc23)C(=O)N(C)[C@@H](CCCC)C(=O)N(C)[C@@H](CCCC)C(=O)N[C@@H](CCCNC(=N)N)C(=O)N1)C(N)=O` [Example 11016] ({CH2CO}-Y[NMeA]DPHL[Hyp]WSW[NMeNle][NMeNle]RCGDK(Myristoyl)-NH2; thioether N-14), the pIC50 was 7.00 to 8.00.

— US10633419B2, “Immunomodulators” (BRISTOL-MYERS SQUIBB COMPANY, priority 2014, dated 2020)
